How the values were obtained:
[1] = tested on: tramadol metabolism (O-desmethyl tramadol production) in rat liver microsomes; test: Liver microsomal incubation assay: inhibition of tramadol metabolism (O-desmethyl tramadol production) in RLM; assay type: in vitro ADME; conditions: rat, tramadol 60 µM
Protocol: (§1) All the substance meet the requirements for analysis.
(§2) To obtain the Michaelis kinetic parameters of tramadol in RLM and HLM, a 200 µL incubation system was established containing 2 µL RLM or HLM (0.2 mg/mL), 186 µL 1xPBS buffer (pH = 7.4), 2 µL tramadol (10–500 µM), and 10 µL NADPH (1 mM). The mixture was pre-incubated for 5 min without NADPH in a water bath shaking at 37 °C. Then, NADPH was added to initiate the reaction, and the mixture was incubated for another 30 min. The reaction was terminated by adding 400 µL of cold ACN and 20 µL of IS (500 ng/mL).
(§3) For drug-interaction screening, 100 µM of each drug (1.6 µL) was added to the system, and added PBS to the final volume of 200 uL. Tramadol concentration was set at 60 µM according to the Km.
(§4) To determine the half-maximal inhibitory concentration (IC50), the concentration of crizotinib was set at 0.01, 0.1, 1, 10, 25, 50, and 100 µM, while the concentration of tramadol was constant at 60 µM in RLM or 100 µM in HLM (according to Km).
(§5) All data were presented as mean ± SD (standard deviation).

[2] = tested on: tramadol metabolism in rat liver microsomes (RLM); test: as above; assay type: in vitro ADME; conditions: RLM
Protocol: as §1, §2, §3, §4, §5

[3] = tested on: tramadol metabolism in human liver microsomes (HLM); test: Liver microsomal incubation assay: inhibition of tramadol metabolism in HLM; assay type: in vitro ADME
Protocol: as §1, §2, §4, §5

[4] = tested on: tramadol metabolism in human liver microsomes; test: as above; assay type: in vitro ADME; conditions: human, human liver microsomes, pH 7.4, probe tramadol 100 µM, tramadol 100 µM, crizotinib 0.01-100 µM
Protocol: as §1, §2, §4, §5

[5] = tested on: liver, kidney and small intestine; test: Morphological examination (H&E staining) of liver, kidney and small intestine; assay type: in vivo, Sprague-Dawley rats; conditions: crizotinib 45 mg/kg, single dose or 7 consecutive days; vs control group E
Protocol: […] […] The blood, liver, kidney, and small intestine were harvested within 10 min and flash-frozen in liquid nitrogen before being transferred to −80 °C for later use.
Additionally, the tissues were fixed in 10% formalin solution and embedded in paraffin. Hematoxylin-eosin (H&E) staining was performed on paraffin sections, which had been dewaxed, dehydrated, and sealed with neutral gum. Pannoramic MIDI was then used to observe the tissues.

[6] = Serum biochemical analysis (ALT, AST); assay type: in vivo, Sprague-Dawley rats; conditions: vs control
Protocol: (§6) Nine rats were randomly divided into three groups (n = 3): group E received 0.5% CMC-Na for 7 days; group F received 45 mg/kg crizotinib for 6 days; and group G received 45 mg/kg of crizotinib for 7 days. […] The blood, liver, kidney, and small intestine were harvested within 10 min and flash-frozen in liquid nitrogen before being transferred to −80 °C for later use.
Serum was collected after centrifugation of blood sample at 2400 × g for 5 min at 4 °C. The levels of ALT and AST were detected according to the protocol of ALT and AST activity assay kits.

[7] = target: T1, CYP2D1 (Rattus norvegicus, UniProt P10633); test: Activity of CYP2D1 in liver microsomes of treated rats (dextromethorphan probe); assay type: in vitro ADME
T1 construct: All liver tissue samples were extracted into liver microsomes by homogenization and centrifugation; from tissue; host or cells: liver microsomes of Sprague-Dawley rats (control or dosed with crizotinib)
T1 sequence (P10633 1-504): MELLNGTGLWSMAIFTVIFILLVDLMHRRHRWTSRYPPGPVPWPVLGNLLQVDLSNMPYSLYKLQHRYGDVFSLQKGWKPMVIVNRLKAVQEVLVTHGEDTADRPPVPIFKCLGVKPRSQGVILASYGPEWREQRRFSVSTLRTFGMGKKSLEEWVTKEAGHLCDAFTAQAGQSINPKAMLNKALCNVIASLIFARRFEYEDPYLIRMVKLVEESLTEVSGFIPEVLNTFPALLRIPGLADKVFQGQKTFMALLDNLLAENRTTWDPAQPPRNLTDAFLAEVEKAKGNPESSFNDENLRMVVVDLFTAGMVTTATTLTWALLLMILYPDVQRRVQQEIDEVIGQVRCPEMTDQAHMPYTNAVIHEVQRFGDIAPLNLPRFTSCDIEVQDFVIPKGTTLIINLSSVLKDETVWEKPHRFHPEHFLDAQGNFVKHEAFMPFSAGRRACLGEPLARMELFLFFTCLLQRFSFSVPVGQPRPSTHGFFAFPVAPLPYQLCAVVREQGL
Protocol: as §6
(§7) All liver tissue samples were extracted into liver microsomes by homogenization and centrifugation, following the same operational steps as previously reported ([Simpson, 2010]). A new incubation system was established, which included 2 µL dextromethorphan or midazolam (the probe substrate of CYP2D1 or CYP3A2), 2 uL RLM (0.2 mg/mL) from different groups, 186 µL 1xPBS buffer, and 10 µL NADPH (1 mM). […] UPLC-MS/MS was used to detect the concentration of dextrorphan and 1-hydroxymidazolam to determine whether the activities of CYP2D1 and CYP3A2 in the liver were affected by crizotinib.

[8] = target: T2, CYP3A2 (Rattus norvegicus, UniProt P05183); test: Activity of CYP3A2 in liver microsomes of treated rats (midazolam probe); assay type: in vitro ADME; conditions: RLM from crizotinib-treated rats (45 mg/kg); midazolam 10 µM
T2 construct: All liver tissue samples were extracted into liver microsomes by homogenization and centrifugation; from tissue; host or cells: liver microsomes of Sprague-Dawley rats (control or dosed with crizotinib)
T2 sequence (P05183 1-504): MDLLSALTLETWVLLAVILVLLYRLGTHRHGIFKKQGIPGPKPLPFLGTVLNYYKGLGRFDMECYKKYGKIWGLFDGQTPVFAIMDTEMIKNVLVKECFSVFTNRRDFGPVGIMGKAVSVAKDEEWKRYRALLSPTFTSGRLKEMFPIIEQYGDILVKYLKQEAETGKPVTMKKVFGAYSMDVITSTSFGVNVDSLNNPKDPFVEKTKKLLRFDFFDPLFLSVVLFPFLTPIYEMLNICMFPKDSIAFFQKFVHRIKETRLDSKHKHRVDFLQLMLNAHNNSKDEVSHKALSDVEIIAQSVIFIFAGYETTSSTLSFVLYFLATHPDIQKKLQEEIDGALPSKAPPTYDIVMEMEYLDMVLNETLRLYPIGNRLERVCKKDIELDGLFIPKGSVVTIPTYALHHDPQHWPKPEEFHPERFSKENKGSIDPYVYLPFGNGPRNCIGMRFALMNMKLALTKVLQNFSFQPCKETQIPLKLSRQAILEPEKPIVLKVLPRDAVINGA
Protocol: as §6, §7

[9] = crizotinib 45 mg/kg for consecutive 7 days
[10] = crizotinib 45 mg/kg single dose

In the case of `C[C@@H](Oc1cc(-c2cnn(C3CCNCC3)c2)cnc1N)c1c(Cl)ccc(F)c1Cl` [crizotinib], the inhibition at 30 min, 100 µM ([1]; pH 7.4, RLM, 100 µM of each drug, vs control group, read-out: inhibitory rate on tramadol metabolism (production of O-desmethyl tramadol)) is reported as 97.2%, the IC50 at 30 min ([1]; pH 7.4, RLM, crizotinib 0.01-100 µM) is reported as 8.74 ± 0.18 µM and the “inhibition mode of tramadol metabolism” value ([2]; Lineweaver-Burk plot) is reported as “non-competitive”. For the same molecule, the Ki ([2]; Lineweaver-Burk, crizotinib 0, 4, 8, 16 µM, tramadol 15-120 µM) was 4.17 µM, the “inhibition mode of tramadol metabolism” value ([3]; Lineweaver-Burk plot) was “non-competitive” and the Ki ([3]; Lineweaver-Burk, crizotinib 0, 5, 10, 20 µM, tramadol 25-200 µM) was 14.4 µM. For the same molecule, the IC50 at 30 min [4] was 11.9 ± 0.25 µM, the “changes in cell morphology, size, arrangement, nuclear morphology of liver, kidney and small intestine (H&E)” value [5] was “no obvious changes” and the “level of serum ALT” value [6, 9] was “increased significantly”. The “level of serum AST” value [6, 9] was “increased significantly”, the “level of serum ALT” value [6, 10] was “no significant change” and the “level of serum AST” value [6, 10] was “no significant change”. For the same molecule, the “metabolic rate of dextromethorphan (CYP2D1 activity)” value ([7]; RLM from crizotinib-treated rats (45 mg/kg), dextromethorphan 25 µM) was “decreased to different extents”, the “metabolic rate of dextromethorphan (CYP2D1 activity)” value ([7]; crizotinib administered for seven days) was “significant decrease” and the “metabolic rate of midazolam (CYP3A2 activity)” value [8] was “decreased to different extents”.
